Values joined by “and” are separate entries in the source; they are usually repeats but may differ in a detail not shown here. Equal entries are not always repeated.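 96-well plates; 48 h exposure; 5 concentrations. Endpoints by linear interpolation between flanking doses. Not reached: highest tested concentration assigned. Here, GI50 denotes the concentration required for 50% inhibition of growth. The concentration for full growth arrest is given as TGI.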
Tests used:
Test in all cases: NCI-60 cell line screen, 48 h
RPMI-8226 leukemia = system: RPMI-8226 leukemia
K-562 leukemia = system: K-562 leukemia
RXF 393 renal = system: RXF 393 renal
HS 578T breast = system: HS 578T breast
OVCAR-8 ovarian = system: OVCAR-8 ovarian
SK-MEL-2 melanoma = system: SK-MEL-2 melanoma
CAKI-1 renal = system: CAKI-1 renal
HOP-92 NSCLC = system: HOP-92 NSCLC
HCC-2998 colon = system: HCC-2998 colon
SNB-19 CNS = system: SNB-19 CNS

Compound | GI50 (RPMI-8226 leukemia) | TGI (RPMI-8226 leukemia) | GI50 (K-562 leukemia) | TGI (K-562 leukemia) | GI50 (RXF 393 renal) | TGI (RXF 393 renal) | GI50 (HS 578T breast) | TGI (HS 578T breast) | GI50 (OVCAR-8 ovarian) | TGI (OVCAR-8 ovarian) | GI50 (SK-MEL-2 melanoma) | TGI (SK-MEL-2 melanoma) | GI50 (CAKI-1 renal) | TGI (CAKI-1 renal) | GI50 (HOP-92 NSCLC) | TGI (HOP-92 NSCLC) | GI50 (HCC-2998 colon) | TGI (HCC-2998 colon) | GI50 (SNB-19 CNS) | TGI (SNB-19 CNS)
C/C(=C\c1ccn(-c2ccc(N)cc2F)n1)[C@@H]1C[C@@H]2O[C@]2(C)CCC[C@H](C)[C@H](O)[C@@H](C)C(=O)C(C)(C)[C@@H](O)CC(=O)O1 | 0.0204 µM | > 50 µM | 0.0197 µM | > 50 µM | 28.6 nM | 0.404 µM | 0.0606 µM | > 16.6 µM | 0.0408 µM | > 50 µM | 0.0518 µM | > 50 µM | 123 nM | > 50 µM | 6510 nM | > 50 µM | 34.7 nM | > 10.6 µM | 0.242 µM | > 50 µM
CNC(=O)CN1CCC(Oc2cc3c(Nc4cccc(Cl)c4F)ncnc3cc2OC)CC1 | 32.2 µM and > 10 µM | > 100 µM | 16.8 µM and > 10 µM | 45.6 µM and > 10 µM | 7350 nM and 2370 nM | 27.3 µM and > 6.92 µM | 3.35 µM and 2.96 µM | 21.2 µM and > 10 µM | 8.25 µM and > 5.04 µM | > 77.3 µM | 16.7 µM and > 7.55 µM | 34.1 µM and > 10 µM | 216 nM and 1110 nM | 10.4 µM and > 10 µM | 1900 nM and 1290 nM | 16.4 µM and > 9.33 µM | 15900 nM and > 7700 nM | 34.6 µM and > 10 µM | 31.5 µM and > 8.29 µM | > 100 µM
O=S(=O)(CCCCl)SCCCCl | – | 64.1 µM | – | 47.5 µM | – | 57.8 µM | – | 94.7 µM | – | 18 µM | – | > 100 µM | – | > 100 µM | – | 78.3 µM | – | > 100 µM | – | > 100 µM
Cc1cc2nc(C(Cl)Cl)nc(-c3ccccc3)n2n1 | 5.04 µM | 44.3 µM | 4.61 µM | > 100 µM | 2270 nM | 5.75 µM | 2.65 µM | 14.5 µM | 5.06 µM | > 100 µM | 27.8 µM | > 100 µM | 2700 nM | 15.4 µM | 2430 nM | 12.2 µM | 1790 nM | 3.49 µM | 4.04 µM | 28 µM
Cn1c(=N)n[n+]([O-])c2ccccc21 | 1.99 µM and 0.574 µM | 5.19 µM and 7.67 µM | – | 10.8 µM and 5.45 µM | – | 36.4 µM | 2.85 µM and 5.89 µM | 6.77 µM and 18.5 µM | – | 31.6 µM and > 55.3 µM | – | 8.87 µM and 12.5 µM | – | 5.86 µM and 6.18 µM | – | 90.9 µM | – | 39.1 µM | 2.63 µM and 6.41 µM | 12.3 µM and 13.3 µM
C[C@@H]1OCC2(CCN(c3cnc(Sc4ccnc(N)c4Cl)c(N)n3)CC2)[C@@H]1N | 37.6 µM | > 100 µM | 0.397 µM | > 100 µM | 3460 nM | > 67.6 µM | 61.8 µM | > 100 µM | > 89.5 µM | > 100 µM | > 100 µM | > 100 µM | 3690 nM | > 100 µM | 46.9 nM | 0.788 µM | > 100000 nM | > 100 µM | > 100 µM | > 100 µM
O=c1ccnc(SCc2ccc(Cl)cc2)[nH]1 | – | > 100 µM | – | > 100 µM | – | > 100 µM | – | > 100 µM | – | > 100 µM | – | > 100 µM | – | > 100 µM | – | > 100 µM | – | 66.2 µM | – | > 100 µM
Nc1c2ccccc2nc2ccccc12 (tested in a mixture with another compound) | 3.86 µM | > 100 µM | 3.81 µM | 12.1 µM | 1280 nM | 3.27 µM | 3.06 µM | 17.4 µM | 0.891 µM | 6.44 µM | 2.16 µM | 4.23 µM | 1830 nM | 5.11 µM | 1840 nM | 6.98 µM | 1850 nM | 4.6 µM | 2.64 µM | 15.7 µM

Source: PubChem BioAssay (NCI)
